Results reported in US20170253581A1, “SUBSTITUTED HETEROCYCLES AS c-MYC TARGETING AGENTS” (Northwestern University, priority 2016, published 2017).

Biological target: Myc/Max binding to DNA (Homo sapiens, UniProt P01106)
Assay: Electrophoretic mobility shift assay (EMSA) of Myc/Max binding to DNA
Format: biochemical
Settings: EMSA, 100 uM test compound; read-out: Bound DNA (%) (100uM)
Procedure: We also tested our best hit compound Min9 (NUCC-0176234) and newly synthesized analogs for effects of these compounds on Myc/Max binding to DNA in electrophoretic mobility shift assays (EMSAs). (See FIG. 5a and FIG. 5b). We expected the active compounds to impair Myc/Max binding to DNA. Several strucutural analogs of Min9 were tested over multiple doses for inhibiting Myc-DNA binding and we observed a dose-dependent inhibition. (See FIG. 5c).
Additional compounds were synthesized and tested in the EMSA assay at concentrations of 200 μM, 100 μM, and 50 μM.

Myc/Max binding to DNA, sequence (P01106 whole entry): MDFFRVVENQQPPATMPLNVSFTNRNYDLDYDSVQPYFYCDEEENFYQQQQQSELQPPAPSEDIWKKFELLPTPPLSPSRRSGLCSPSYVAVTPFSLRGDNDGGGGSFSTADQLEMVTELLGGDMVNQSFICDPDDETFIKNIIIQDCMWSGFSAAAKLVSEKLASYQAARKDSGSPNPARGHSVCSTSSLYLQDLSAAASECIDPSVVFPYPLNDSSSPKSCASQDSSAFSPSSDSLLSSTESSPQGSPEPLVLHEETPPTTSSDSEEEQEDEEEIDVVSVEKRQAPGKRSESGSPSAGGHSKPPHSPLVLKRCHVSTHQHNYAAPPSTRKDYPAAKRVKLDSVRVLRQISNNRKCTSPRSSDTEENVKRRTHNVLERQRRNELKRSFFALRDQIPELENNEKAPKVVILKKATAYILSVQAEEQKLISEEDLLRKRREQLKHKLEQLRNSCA

remaining activity at 100 µM	Structure (SMILES)
9%	Cn1nc(-c2ccc(OCc3ccc(Cl)cc3)cc2O)c(-c2ccc(F)cc2)c1C(F)(F)F [compound 0196348]
135%	Cn1cc(-c2ccc(F)cc2)c(-c2ccc(OCc3ccc(Cl)cc3)cc2O)n1 [compound 0196349]
18%	Oc1cc(OCc2ccc(Cl)cc2)ccc1-c1n[nH]cc1-c1cccc(Cl)c1 [compound 0196350]
130%	Cn1cc(-c2cccc(Cl)c2)c(-c2ccc(OCc3ccc(Cl)cc3)cc2O)n1 [compound 0196351]
65%	CCc1ccc(Oc2c(-c3ccc(OCc4ccc(Cl)cc4)cc3OC)nn(C)c2C(F)(F)F)cc1 [compound 0196352]
122%	CCc1ccc(Oc2c(-c3ccc(OCc4ccc(Cl)cc4)cc3)nn(C)c2C(F)(F)F)cc1 [compound 0196353]
82%	CCc1ccc(Oc2c(-c3ccc(OCc4ccc(Cl)c(Cl)c4)cc3O)nn(C)c2C(F)(F)F)cc1 [compound 0196354]
25%	CCc1ccc(Oc2c(-c3ccc(OCc4ccc(Cl)c(Cl)c4)cc3O)n[nH]c2C(F)(F)F)cc1 [compound 0196355]
68%	CCc1ccc(Oc2c(-c3ccc(OCCc4ccc(Cl)cc4)cc3O)nn(C)c2C(F)(F)F)cc1 [compound 0196356]
28%	CCc1ccc(Oc2c(-c3ccc(OCCc4ccc(Cl)cc4)cc3O)n[nH]c2C(F)(F)F)cc1 [compound 0196357]
98%	CCc1ccc(Oc2c(-c3ccc(OCc4ccc(OC)cc4)cc3O)nn(C)c2C(F)(F)F)cc1 [compound 0196358]
57%	CCc1ccc(Oc2c(-c3ccc(OCc4ccc(OC)cc4)cc3O)n[nH]c2C(F)(F)F)cc1 [compound 0196359]
100%	Cn1nc(-c2ccc(OCc3ccc(Cl)cc3)cc2O)c(-c2cc(C(F)(F)F)cc(C(F)(F)F)c2)c1C(F)(F)F [compound 0196360]
0%	Cn1nc(C(F)(F)F)c(-c2cc(C(F)(F)F)cc(C(F)(F)F)c2)c1-c1ccc(OCc2ccc(Cl)cc2)cc1O [compound 0196361]
33%	Oc1cc(OCc2ccc(Cl)cc2)ccc1-c1n[nH]c(C(F)(F)F)c1-c1cc(C(F)(F)F)cc(C(F)(F)F)c1 [compound 0196362]
5%	Oc1cc(OCc2ccc(Cl)cc2)ccc1-c1n[nH]c(C(F)(F)F)c1-c1ccccc1Cl [compound 0196363]
132%	Cn1nc(-c2ccc(OCc3ccc(Cl)cc3)cc2O)c(-c2cccnc2)c1C(F)(F)F [compound 0196364]
98%	Cn1nc(C(F)(F)F)c(-c2cccnc2)c1-c1ccc(OCc2ccc(Cl)cc2)cc1O [compound 0196365]
79%	Oc1cc(OCc2ccc(Cl)cc2)ccc1-c1n[nH]c(C(F)(F)F)c1-c1cccnc1 [compound 0196366]
70%	Oc1cc(OCc2ccc(Cl)cc2)ccc1-c1n[nH]cc1-c1ccccc1 [compound 0198293]
97%	Cn1cc(-c2ccccc2)c(-c2ccc(OCc3ccc(Cl)cc3)cc2O)n1 [compound 0198294]
0%	Oc1cc(OCc2ccc(Cl)cc2)ccc1-c1n[nH]c(C(F)(F)F)c1-c1ccccc1 [compound 0198295]
74%	Cn1nc(C(F)(F)F)c(-c2ccccc2)c1-c1ccc(OCc2ccc(Cl)cc2)cc1O [compound 0198296]

remaining activity at 100 µM	Structure (SMILES)
89%	Cn1nc(-c2ccc(OCc3ccc(Cl)cc3)cc2O)c(-c2ccccc2)c1C(F)(F)F [compound 0198297]
88%	Cc1[nH]nc(-c2ccc(OCc3ccc(Cl)cc3)cc2O)c1-c1ccccc1 [compound 0198298]
90%	Cc1nn(C)c(-c2ccc(OCc3ccc(Cl)cc3)cc2O)c1-c1ccccc1 [compound 0198299]
94%	Cc1c(-c2ccccc2)c(-c2ccc(OCc3ccc(Cl)cc3)cc2O)nn1C [compound 0198300]
105%	CCc1[nH]nc(-c2ccc(OCc3ccc(Cl)cc3)cc2O)c1-c1ccccc1 [compound 0198301]
100%	CCc1nn(C)c(-c2ccc(OCc3ccc(Cl)cc3)cc2O)c1-c1ccccc1 [compound 0198302]
105%	CCc1c(-c2ccccc2)c(-c2ccc(OCc3ccc(Cl)cc3)cc2O)nn1C [compound 0198303]
98%	COc1ccc(-c2c[nH]nc2-c2ccc(OCc3ccc(Cl)cc3)cc2O)cc1 [compound 0198304]
106%	COc1ccc(-c2cn(C)nc2-c2ccc(OCc3ccc(Cl)cc3)cc2O)cc1 [compound 0198305]
105%	COc1ccc(-c2c(C)nn(C)c2-c2ccc(OCc3ccc(Cl)cc3)cc2O)cc1 [compound 0198306]
111%	COc1ccc(-c2c(-c3ccc(OCc4ccc(Cl)cc4)cc3O)nn(C)c2C)cc1 [compound 0198307]
92%	COc1cccc(-c2c[nH]nc2-c2ccc(OCc3ccc(Cl)cc3)cc2O)c1 [compound 0198308]
2%	COc1cccc(-c2c(-c3ccc(OCc4ccc(Cl)cc4)cc3O)n[nH]c2C(F)(F)F)c1 [compound 0198309]
86%	COc1cccc(-c2c(C(F)(F)F)nn(C)c2-c2ccc(OCc3ccc(Cl)cc3)cc2O)c1 [compound 0198310]
105%	COc1cccc(-c2c(-c3ccc(OCc4ccc(Cl)cc4)cc3O)nn(C)c2C(F)(F)F)c1 [compound 0198311]
104%	COc1cccc(-c2c(-c3ccc(OCc4ccc(Cl)cc4)cc3O)n[nH]c2C)c1 [compound 0198312]
105%	COc1cccc(-c2c(C)nn(C)c2-c2ccc(OCc3ccc(Cl)cc3)cc2O)c1 [compound 0198313]
104%	COc1cccc(-c2c(-c3ccc(OCc4ccc(Cl)cc4)cc3O)nn(C)c2C)c1 [compound 0198314]
105%	CCc1[nH]nc(-c2ccc(OCc3ccc(Cl)cc3)cc2O)c1-c1cccc(OC)c1 [compound 0198315]
101%	CCc1nn(C)c(-c2ccc(OCc3ccc(Cl)cc3)cc2O)c1-c1cccc(OC)c1 [compound 0198316]
126%	CCc1c(-c2cccc(OC)c2)c(-c2ccc(OCc3ccc(Cl)cc3)cc2O)nn1C [compound 0198317]
32%	Oc1cc(OCc2ccc(Cl)cc2)ccc1-c1n[nH]cc1-c1cc(C(F)(F)F)cc(C(F)(F)F)c1 [compound 0198318]
96%	Cn1cc(-c2cc(C(F)(F)F)cc(C(F)(F)F)c2)c(-c2ccc(OCc3ccc(Cl)cc3)cc2O)n1 [compound 0198319]

remaining activity at 100 µM	Structure (SMILES)
52%	Oc1cc(OCc2ccc(Cl)cc2)ccc1-c1n[nH]cc1-c1cccnc1 [compound 0198320]
96%	Cn1cc(-c2cccnc2)c(-c2ccc(OCc3ccc(Cl)cc3)cc2O)n1 [compound 0198321]
28%	Oc1cc(OCc2ccc(Cl)cc2)ccc1-c1n[nH]cc1-c1ccoc1 [compound 0198322]
70%	Cn1ncc(-c2ccoc2)c1-c1ccc(OCc2ccc(Cl)cc2)cc1O [compound 0198323]
80%	Cn1cc(-c2ccoc2)c(-c2ccc(OCc3ccc(Cl)cc3)cc2O)n1 [compound 0198324]
60%	Oc1cc(OCc2ccc(Cl)cc2)ccc1-c1n[nH]c(C(F)(F)F)c1-c1ccoc1 [compound 0198325]
106%	COc1cccc(-c2cn(C)nc2-c2ccc(OCc3ccc(Cl)cc3)cc2O)c1 [compound 0198326]
56%	Cc1cc(C)cc(-c2c[nH]nc2-c2ccc(OCc3ccc(Cl)cc3)cc2O)c1 [compound 0198352]
104%	Cc1cc(C)cc(-c2cn(C)nc2-c2ccc(OCc3ccc(Cl)cc3)cc2O)c1 [compound 0198353]
85%	Cc1cc(C)cc(-c2cnn(C)c2-c2ccc(OCc3ccc(Cl)cc3)cc2O)c1 [compound 0198354]
75%	Cc1ccccc1-c1c[nH]nc1-c1ccc(OCc2ccc(Cl)cc2)cc1O [compound 0198355]
118%	Cc1ccccc1-c1cn(C)nc1-c1ccc(OCc2ccc(Cl)cc2)cc1O [compound 0198356]
62%	COc1ccccc1-c1c[nH]nc1-c1ccc(OCc2ccc(Cl)cc2)cc1O [compound 0198357]
93%	COc1ccccc1-c1cn(C)nc1-c1ccc(OCc2ccc(Cl)cc2)cc1O [compound 0198358]
35%	Cc1cc(C)c(-c2c[nH]nc2-c2ccc(OCc3ccc(Cl)cc3)cc2O)c(C)c1 [compound 0198359]
101%	Cc1cc(C)c(-c2cn(C)nc2-c2ccc(OCc3ccc(Cl)cc3)cc2O)c(C)c1 [compound 0198360]
87%	Cn1cc(-c2c[nH]nc2-c2ccc(OCc3ccc(Cl)cc3)cc2O)cn1 [compound 0198361]
109%	Cn1cc(-c2cn(C)nc2-c2ccc(OCc3ccc(Cl)cc3)cc2O)cn1 [compound 0198362]
4%	N#Cc1ccc(-c2c(-c3ccc(OCc4ccc(Cl)cc4)cc3O)n[nH]c2C(F)(F)F)cc1 [compound 0198391]
54%	Cn1nc(C(F)(F)F)c(-c2ccc(C#N)cc2)c1-c1ccc(OCc2ccc(Cl)cc2)cc1O [compound 0198392]
71%	Cn1nc(-c2ccc(OCc3ccc(Cl)cc3)cc2O)c(-c2ccc(C#N)cc2)c1C(F)(F)F [compound 0198393]
30%	NC(=O)c1ccc(-c2c(-c3ccc(OCc4ccc(Cl)cc4)cc3O)n[nH]c2C(F)(F)F)cc1 [compound 0198394]
